Experimental data from PubChem BioAssay (NCI).
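Following 48 hours of exposure in 96-well plates, responses at five concentrations were used to interpolate endpoints linearly. The concentration for full growth arrest is given as TGI.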

Test system: P388/ADR leukemia
Test: NCI tumour cell line growth inhibition, 48 h

O=C1NC2(CCCCC2)C(=O)N1CCN(CCCl)CCCl
TGI: 234 µM
